Laboratory results as given in ChEMBL document CHEMBL5137099, “Discovery of Novel cccDNA Reducers toward the Cure of Hepatitis B Virus Infection” (J Med Chem, 2022).
≈ marks a conversion by molar mass, not a printed value. Calls of active or inactive are those of the source. No cut-off for these calls is given here.

Key:
[1] = Aqueous solubility of the compound; type: physicochemical; conditions: buffer
[2] = system: Hepatitis B virus; test: Antiviral activity against HBV infected in human HepG2 cells assessed as reduction in HBeAg secretion incubated for 5 days by counter screen assay; type: functional, organism-based; conditions: HepG2, 120 h
[3] = Permeability of the compound by PAMPA analysis; type: ADME; conditions: read-out: permeability
[4] = system: Hepatitis B virus; test: Antiviral activity against HBV infected in human primary hepatocyte cells assessed as reduction in HBV cccDNA production by measuring inhibition of HBsAg secretion measured after 48 hrs by ELISA; type: functional, organism-based
[5] = Octanol-aqueous buffer distribution coefficient, log D of the compound at pH 7.4 by CAMDIS assay; type: physicochemical
[6] = system: Hepatitis B virus; test: Antiviral activity against HBV infected in human HepDES19 cells assessed as reduction in HBV cccDNA production by measuring inhibition of HBeAg secretion incubated for 5 days by ELISA; type: functional, organism-based; conditions: HepDES19, 120 h
[7] = Metabolic stability in mouse hepatocytes assessed as intrinsic clearance; type: ADME, cell-based, Hepatocyte; conditions: read-out: CLH
[8] = system: Hepatitis B virus; test: Antiviral activity against HBV infected in human HepDES19 cells assessed as reduction in HBV cccDNA production by measuring inhibition of HBeAg secretion at 0.3 to 10 uM by southern blot analysis; type: functional, organism-based; conditions: dose 0.3-10 µM
[9] = Therapeutic index, ratio of CC50 for cytotoxicity against human HepDES19 cells assessed as reduction in cell viability measured after 5 days by CCK-8 assay to IC50 for antiviral activity against HBV infected in human HepDES19 cells assessed as reduction in HBV cccDNA production by measuring inhibition of HBeAg secretion incubated for 5 days by ELISA; type: toxicity, cell-based; conditions: time 5 day, read-out: Ratio CC50/IC50
[10] = Cytotoxicity against human HepDES19 cells assessed as reduction in cell viability measured after 5 days by CCK-8 assay; type: toxicity, cell-based; conditions: time 5 day

Row | solubility [1] [µg/mL] | Papp [3] [×10⁻⁶ cm/s] | logD [5] | IC50 [6] [nM] | CLint scaled [7] [mL/min/kg] | SMILES | IC50 [2] [nM] | IC50 [4] [nM] | Activity [8] | selectivity ratio at 120 h [9] | CC50 at 120 h [10] [nM]
1 | 32 (≈ 84.6 µM) | 1.72 | 1.44 | 2360 | 34.8 | O=C(O)C1CCN(c2ccc3c(=O)c4c(Cl)ccc(Cl)c4oc3c2)C1 (stereo not drawn) | > 50000 | 1160 |  |  | 
2 | < 465 | 1.34 | 1.5 | 750 |  | Cc1cc2c(=O)c3cccc(Cl)c3oc2cc1N1CCC(C(=O)O)C1 (stereo not drawn) | > 50000 | 3000 |  |  | 
3 | < 1 |  |  | 710 | 86.7 | O=C(Nc1ccc2c(=O)c3cccc(F)c3oc2c1)c1ccccc1F | > 50000 | 5450 | Active | > 141 | > 100000
4 | 29 (≈ 76.7 µM) | 1.19 | 1.42 | 650 | 20.3 | O=C(O)C1CCN(c2ccc3c(=O)c4c(Cl)ccc(Cl)c4oc3c2)C1 (single isomer, unassigned) | > 50000 | 2610 |  |  | 
